Results reported in article PMC10095301, “To Target or Not to Target Schistosoma mansoni Cyclic Nucleotide Phosphodiesterase 4A?” (International Journal of Molecular Sciences, 2023).
Where “and” joins values, the source holds several entries; their conditions need not be identical. Equal entries are not always repeated. Where two headings read alike, the source gives them in different places. Marks after values point to notes of the source that are not given here. Blank lines part the entries; values can stand above or below the compound they belong to.

What was measured:
SmPDE4A_CD = SmPDE4A_CD (Schistosoma mansoni, UniProt A0ACM8RGL1); assay: biochemical; details: for inhibition at 10 µM: read-out: SmPDE4A_CD Inhibition at 10 µM (%)
Procedure: (§1) Enzyme velocity was plotted against substrate concentration, and Km values were determined using GraphPad Prism software version 8, analyzing the Michaelis–Menten kinetics of the enzyme.
(§2) Inhibitors were initially tested at 10 µM (triplicate measurements/assay, n = 3). In follow-up experiments, dose-response curves were made in the range 100 µM–10 pM (triplicate measurements/assay, n = 3). […] The reaction was terminated by the addition of 5 µL Lonza Stop Buffer supplemented with 10 µM pan-PDE4 inhibitor NPD-0001. Subsequently, 5 µL of Lonza Detection reagent (diluted to 80% with reaction buffer) was added, and the reaction was incubated for 10 min at 300 rpm. Luminescence was read with a Victor3 luminometer using a 0.1 s/well program. […] The Cheng-Prussoff equation, embedded in the GraphPad Prism software, was used to convert IC50 values to pKi values.

SmPDE4A_FL = SmPDE4A_FL (Schistosoma mansoni, UniProt A0ACM8RGL1); assay: biochemical; details: read-out: SmPDE4A_FL inhibition at 10 µM
Procedure: as §1, §2

[1] = Cytotoxicity on MRC-5 cells; type: cell-based; details: human, MRC-5SV40 lung fibroblasts, read-out: MRC-5 pIC50 (converted)
Description: Table 4 Effect of SmPDE4A inhibitors on S. mansoni survival and oviposition. | column: MRC-5 pIC50

S. mansoni [2] = tested on: S. mansoni; parameters: method as in PMID 31711973; details: data from Botros et al. and this study, cited from earlier work
S. mansoni [3] = tested on: S. mansoni; parameters: method as in PMID 31711973; details: data from Botros et al. and this study, cited from earlier work; remark: listed apart in the source
SmPDE4A = target: SmPDE4A; parameters: method as in PMID 28704396; details: estimated value; cited from earlier work
S. mansoni [4] = assay: In vitro anti-S. mansoni assay: adult worm killing; type: cell-based, Schistosoma mansoni; details: for %Worm Killing (Female) / %Worm Killing (Male): day 5
Procedure: Infected Syrian golden hamsters (Mesocrietus auratus) bred and maintained at the Schistosome Biology Supply Center (SBSC) of Theodor Bilharz Research Institute (TBRI), Giza, Egypt, were used. Animals were housed under controlled biological conditions. Animal experiments were conducted in accordance with the Guide for Care and Use of Laboratory Animals and were approved by the Institutional Review Board (IRB) of TBRI. Seven weeks post-infection, hamsters were anesthetized using pentobarbital in a dose of 200 mg/kg body weight and 2 hamsters were sacrificed to obtain the required number of worms. The animals were then perfused using a normal saline solution (0.9% NaCl), and worms were collected. Six to 8 worms per well were placed in a 12-well tissue culture plate, taking care to guarantee 1 to 2 worm pairs/well and fresh RPMI-1640 medium (plus glutamine, 20% newborn calf serum and antibiotics [streptomycin, penicillin and gentamicin]), containing the indicated concentration of the test compound, was added. Worms were incubated overnight in a CO2 incubator at 37 °C. On the 2nd day, worms were examined by microscopy, washed 3 times with normal saline, a fresh medium was added, and the incubation was continued. On the 3rd day, worm motility was observed, and on the 4th day, the medium was again changed. On day 5 (end of the observation period), worms were microscopically examined for their motility and appearance. Each concentration was tested in duplicate wells, and the final recording of percent worm mortality was determined as the number of dead worms [contracted and opaque] divided by the total number of worms ×100).
(§3) For these experiments, roflumilast and NPD-0001 were freshly prepared in different concentrations (100 µM, 50 µM, 25 µM 10 µM and 5 µM) in RPMI-1640 medium and tested in 12-well tissue culture plates for S. mansoni survival and ovipositing capacity. To assess the effects of roflumilast and NPD-0001 on egg production in vitro, we used 12-well tissue culture plates containing 6–8 worms, including at least 1 or 2 worm couples and fresh RPMI-1640 medium containing the indicated concentration of the test compound. Worms were incubated overnight in a CO2 incubator at 37 °C. On the 2nd day, worms were washed 3 times with normal saline, fresh medium was added, and the incubation was continued. Each concentration was tested in duplicate wells, and on the 4th day, eggs were counted and discarded, and the medium was changed. On day 5 (the end of the observation period), newly deposited eggs were counted. The final egg number is the total count of days 4 and 5 for each concentration tested. Statistical analysis was done with Student’s unpaired, 2-tailed t-test.

S. mansoni [5] = assay: In vitro anti-S. mansoni assay: oviposition (egg count); type: cell-based, Schistosoma mansoni; details: eggs of days 4 and 5
Procedure: as §3

[6] = read-out: SmPDE4A_CD pKi (converted)
[7] = SmPDE4A_CD pKi, mean ± SEM, n ≥ 3, cAMP at 2 × Km (6 µM), Cheng-Prusoff

- Ki (SmPDE4A_CD; [6]): 2000 nM
- reduction in SmPDE4A inhibitory potency (fold) (SmPDE4A_CD; relative to NPD-1204): 10 fold
Compound: O=C(Nc1ccccc1Cl)c1ccc(OC(F)F)c(OCC2CC2)c1 [NPD-3080]

- inhibition at 10 µM (SmPDE4A_CD; 10 µM compound): 16%
Compound: COc1ccc(C(=O)Nc2c(Cl)cncc2Cl)cc1 [NPD-0548]

- inhibition at 10 µM (SmPDE4A_CD; 10 µM compound): 15%
Compound: COc1ccc(NC(=O)c2ccc(OC(F)F)c(OCC3CC3)c2)cc1Cl [NPD-3000]

- inhibition at 10 µM (SmPDE4A_CD; 10 µM compound): 8%
Compound: COc1ccc(C(=O)Nc2c(Cl)cncc2Cl)cc1OCc1ccccc1 [NPD-0546]

- Ki (SmPDE4A_CD; [6]): 398 nM
Compound: COc1ccc(C(=O)Nc2c(Cl)cncc2Cl)cc1OCC1CC1 [NPD-3094]

Compound: O=C(Nc1c(Cl)cncc1Cl)c1ccc(OC(F)F)c(OCC2CC2)c1 [roflumilast]
- IC50 (SmPDE4A_CD): 631 nM
- Ki (SmPDE4A_CD; [7]): 79.4 nM
- inhibition at 10 µM (SmPDE4A_CD): > 50%
- inhibition at 10 µM (SmPDE4A_FL): > 50%
- IC50 [1]: > 63.1 µM
- %Worm Killing (Female) (S. mansoni [2]; 5 µM): 0%
- %Worm Killing (Male) (S. mansoni [2]; 5 µM): 0%
- %Worm Killing (Female) (S. mansoni [2]; 10 µM): 0%
- %Worm Killing (Male) (S. mansoni [2]; 10 µM): 0%
- %Worm Killing (Female) (S. mansoni [2]; 25 µM): 0%
- %Worm Killing (Male) (S. mansoni [2]; 25 µM): 0%
- %Worm Killing (Female) (S. mansoni [2]; 50 µM): 0%
- %Worm Killing (Male) (S. mansoni [2]; 50 µM): 0%
- %Worm Killing (Female) (S. mansoni [2]; 100 µM): 0%
- %Worm Killing (Male) (S. mansoni [2]; 100 µM): 0%
- % Oviposition Reduction (S. mansoni [3]; 5 µM): 35 * %
- % Oviposition Reduction (S. mansoni [3]; 10 µM): 39 * %
- % Oviposition Reduction (S. mansoni [3]; 25 µM): 42 * %
- % Oviposition Reduction (S. mansoni [3]; 50 µM): 49 * %
- % Oviposition Reduction (S. mansoni [3]; 100 µM): 52 * %
- SmPDE4A pKi (estimated) (SmPDE4A): 7.8

Compound: COc1ccc(C2=NN(C3CCCCCC3)C(=O)[C@H]3CC=CC[C@@H]23)cc1OCCCCOc1ccc(-c2nnn[nH]2)cc1 [NPD-0001]
- IC50 (SmPDE4A_CD): 1580 nM
- Ki (SmPDE4A_CD; [7]): 126 nM
- inhibition at 10 µM (SmPDE4A_CD): > 50%
- inhibition at 10 µM (SmPDE4A_FL): > 50%
- %Worm Killing (Female) (S. mansoni [4]; 5 µM): 0%
- %Worm Killing (Male) (S. mansoni [4]; 5 µM): 0%
- %Worm Killing (Female) (S. mansoni [4]; 10 µM): 0%
- %Worm Killing (Male) (S. mansoni [4]; 10 µM): 0%
- %Worm Killing (Female) (S. mansoni [4]; 25 µM): 0%
- %Worm Killing (Male) (S. mansoni [4]; 25 µM): 0%
- %Worm Killing (Female) (S. mansoni [4]; 50 µM): 0%
- %Worm Killing (Male) (S. mansoni [4]; 50 µM): 0%
- %Worm Killing (Male) (S. mansoni [4]; 100 µM): 63%
- % Oviposition Reduction (S. mansoni [5]; 5 µM): 0%
- % Oviposition Reduction (S. mansoni [5]; 10 µM): 0%
- % Oviposition Reduction (S. mansoni [5]; 25 µM): 13%
- % Oviposition Reduction (S. mansoni [5]; 50 µM): 23%
- % Oviposition Reduction (S. mansoni [5]; 100 µM): 100 * %
- IC50 [1]: 7.94 µM

- inhibition at 10 µM (SmPDE4A_CD; 10 µM compound): 9%
Compound: COc1ccc(C(=O)Nc2c(Cl)cncc2Cl)cc1Cl [NPD-1180]

Compound: O=C(C1CCCCC1)N1CC(=O)N2CCc3ccccc3C2C1 (stereo not drawn) [praziquantel]
- worm killing (S. mansoni [4]; 5 µM (lowest concentration tested), sex not specified): 100%
- % Oviposition Reduction (S. mansoni [5]; 5 µM): 100%

- inhibition at 10 µM (SmPDE4A_CD; 10 µM compound): 4%
Compound: O=C(Nc1cccc(Cl)c1)c1ccc(OC(F)F)c(OCC2CC2)c1 [NPD-3075]

- Ki (SmPDE4A_CD; [6]): 251 nM
Compound: O=C(Nc1ccncc1Cl)c1ccc(OC(F)F)c(OCC2CC2)c1 [NPD-1204]

- Ki (SmPDE4A_CD; [6]): 2510 nM
Compound: O=C(Nc1c(Cl)cncc1Cl)c1ccc(F)c(OCC2CC2)c1 [NPD-3093]

- inhibition at 10 µM (SmPDE4A_CD; 10 µM compound): 21%
- reduction in SmPDE4A inhibitory potency (fold) (SmPDE4A_CD; relative to roflumilast): three-fold reduction in potency
Compound: O=C(Nc1cnccc1Cl)c1ccc(OC(F)F)c(OCC2CC2)c1 [NPD-1205]

- Ki (SmPDE4A_CD; [6]): 794 nM
Compound: O=C(Nc1c(Cl)cncc1Cl)c1ccc(Cl)c(OCC2CC2)c1 [NPD-3096]

Compound: O=C(Nc1c(Cl)c[n+]([O-])cc1Cl)c1ccc(OC(F)F)c(OCC2CC2)c1 [NPD-2980, roflumilast N-oxide]
- Ki (SmPDE4A_CD; [7]): 63.1 nM

Compound: COc1ccc(C(=O)Nc2c(Cl)cncc2Cl)cc1OC1CCCC1 [piclamilast]
- IC50 (SmPDE4A_CD): 3160 nM
- Ki (SmPDE4A_CD; [7]): 316 nM and 63.1 nM
- inhibition at 10 µM (SmPDE4A_CD): > 50%
- inhibition at 10 µM (SmPDE4A_FL): > 50%

- inhibition at 10 µM (SmPDE4A_CD; 10 µM compound): > 50%
- Ki (SmPDE4A_CD; [6]): 501 nM
- IC50 (SmPDE4A_CD; representative dose-response curves, Figure 4B, read-out: pIC50 inhibition of enzymatic activity of SmPDE4A_CD (converted)): 3980 nM
- inhibition at 10 µM (SmPDE4A_FL; 10 µM compound, toolbox screen): > 50%
Compound: COc1ccc(C2=NN(C3CCN(C(=O)CN4C(=O)CCC4=O)CC3)C(=O)C3CC=CCC23)cc1OC (stereo not drawn) [NPD-0007]

- Ki (SmPDE4A_CD; [6]): 3980 nM
Compound: COc1ccc(C(=O)Nc2c(Cl)cncc2Cl)cc1OC [NPD-0446]

- inhibition at 10 µM (SmPDE4A_CD; 10 µM compound): 46%
Compound: O=C(Nc1ccncc1)c1ccc(OC(F)F)c(OCC2CC2)c1 [NPD-3076]
